# In patent US20260224588A1, “BENZODIAZEPINONE-DERIVED INHIBITORS OF EGFR AND HER2” (The Research Foundation for the State University of New York, priority 2023, published 2026):
# Tests used:
# Experiment in all cases: KINOMEscan
# Assay type in all cases: binding
# Details in all cases: 1 μM of compound 4; read-out: POC
# CSNK1G3 = CSNK1G3 (Homo sapiens, UniProt Q9Y6M4)
# RIPK2 = biological target: T1, RIPK2 (Homo sapiens, UniProt O43353)
# T1 construct: purchased Eurofins DiscoverX Corporation (KINOMEscan screening service)
# RIPK1 = biological target: T2, RIPK1 (Homo sapiens, UniProt Q13546)
# T2 construct: purchased Eurofins DiscoverX Corporation (KINOMEscan screening service)
# BRAF = BRAF (Homo sapiens, UniProt P15056)
# STK39 = biological target: T3, STK39 (Homo sapiens, UniProt Q9UEW8)
# T3 construct: purchased Eurofins DiscoverX (KINOMEscan service)
# TEC = biological target: T4, TEC (Homo sapiens, UniProt P42680)
# T4 construct: purchased Eurofins DiscoverX Corporation
# PCTK2 = biological target: T5, PCTK2 (Homo sapiens, UniProt Q00537)
# T5 construct: purchased Eurofins DiscoverX Corporation (KINOMEscan)
# MST4 = MST4 (Homo sapiens, UniProt Q9P289)
# EGFR(L858R) = EGFR(L858R) (Homo sapiens, UniProt P00533, L858R); set-up: purchased Eurofins DiscoverX (KINOMEscan service)
# ASK2 = ASK2 (Homo sapiens, UniProt O95382)
# CLK2 = CLK2 (Homo sapiens, UniProt P49760)
# MET(M1250T) = MET(M1250T) (Homo sapiens, UniProt P08581, M1250T)
# MAP4K2 = MAP4K2 (Homo sapiens, UniProt Q12851)
# NEK6 = NEK6 (Homo sapiens, UniProt Q9HC98)
# GRK1 = biological target: T6, GRK1 (Homo sapiens, UniProt Q15835)
# T6 construct: purchased Eurofins DiscoverX Corporation
# MAPKAPK2 = MAPKAPK2 (Homo sapiens, UniProt P49137)
# TGFBR2 = biological target: T7, TGFBR2 (Homo sapiens, UniProt P37173)
# T7 construct: purchased Eurofins DiscoverX Corporation
# TRPM6 = biological target: T8, TRPM6 (Homo sapiens, UniProt Q9BX84)
# T8 construct: purchased Eurofins DiscoverX Corporation
# PRKCI = PRKCI (Homo sapiens, UniProt P41743)
# RET(V804L) = biological target: T9, RET(V804L) (Homo sapiens, UniProt P07949, V804L)
# T9 construct: purchased Eurofins DiscoverX Corporation (KINOMEscan screening service)
# CSNK1A1L = CSNK1A1L (Homo sapiens, UniProt Q8N752)
# TNIK = biological target: T10, TNIK (Homo sapiens, UniProt Q9UKE5)
# T10 construct: purchased Eurofins DiscoverX Corporation
# PIK3CB = PIK3CB (Homo sapiens, UniProt P42338)
# ABL2 = biological target: T11, ABL2 (Homo sapiens, UniProt P42684)
# T11 construct: purchased Eurofins DiscoverX Corporation
# ZAK = biological target: T12, ZAK (Homo sapiens, UniProt Q9NYL2)
# T12 construct: purchased Eurofins DiscoverX
# ACVR1 = biological target: T13, ACVR1 (Homo sapiens, UniProt Q04771)
# T13 construct: purchased Eurofins DiscoverX Corporation
# CDK11 = CDK11 (Homo sapiens, UniProt Q9BWU1)
# EPHA8 = biological target: T14, EPHA8 (Homo sapiens, UniProt P29322)
# T14 construct: purchased Eurofins DiscoverX (KINOMEscan service)
# LOK = LOK (Homo sapiens, UniProt O94804)
# FYN = biological target: T15, FYN (Homo sapiens, UniProt P06241)
# T15 construct: purchased Eurofins DiscoverX Corporation
# CDKL3 = CDKL3 (Homo sapiens, UniProt Q8IVW4)
# CLK4 = CLK4 (Homo sapiens, UniProt Q9HAZ1)
# PIP5K2B = PIP5K2B (Homo sapiens, UniProt P78356)
# TRKA = biological target: T16, TRKA (Homo sapiens, UniProt P04629)
# T16 construct: purchased Eurofins DiscoverX Corporation
# PIK3CA(Q546K) = PIK3CA(Q546K) (Homo sapiens, UniProt P42336, Q546K)
# MAST1 = MAST1 (Homo sapiens, UniProt Q9Y2H9)
# LCK = LCK (Homo sapiens, UniProt P06239)
# ASK1 = ASK1 (Homo sapiens, UniProt Q99683)
# CAMK2D = CAMK2D (Homo sapiens, UniProt Q13557)
# PRKCI, sequence (P41743 whole entry): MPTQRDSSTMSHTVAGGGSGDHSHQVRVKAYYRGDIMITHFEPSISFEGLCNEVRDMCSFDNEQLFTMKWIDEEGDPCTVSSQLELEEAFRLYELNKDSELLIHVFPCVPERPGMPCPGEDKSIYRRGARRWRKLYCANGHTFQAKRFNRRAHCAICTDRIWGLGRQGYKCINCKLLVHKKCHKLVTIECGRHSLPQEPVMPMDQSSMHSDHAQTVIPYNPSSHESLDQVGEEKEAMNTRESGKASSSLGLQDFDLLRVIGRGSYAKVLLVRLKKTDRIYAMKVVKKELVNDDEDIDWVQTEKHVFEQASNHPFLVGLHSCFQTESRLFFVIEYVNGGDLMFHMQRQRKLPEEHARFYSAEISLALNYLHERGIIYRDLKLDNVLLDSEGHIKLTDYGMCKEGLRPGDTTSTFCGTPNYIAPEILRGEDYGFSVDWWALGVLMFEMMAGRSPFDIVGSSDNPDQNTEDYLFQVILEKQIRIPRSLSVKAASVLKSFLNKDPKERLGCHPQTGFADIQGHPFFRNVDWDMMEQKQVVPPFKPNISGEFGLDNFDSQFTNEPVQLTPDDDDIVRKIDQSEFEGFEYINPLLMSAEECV
# CSNK1A1L, sequence (Q8N752 whole entry): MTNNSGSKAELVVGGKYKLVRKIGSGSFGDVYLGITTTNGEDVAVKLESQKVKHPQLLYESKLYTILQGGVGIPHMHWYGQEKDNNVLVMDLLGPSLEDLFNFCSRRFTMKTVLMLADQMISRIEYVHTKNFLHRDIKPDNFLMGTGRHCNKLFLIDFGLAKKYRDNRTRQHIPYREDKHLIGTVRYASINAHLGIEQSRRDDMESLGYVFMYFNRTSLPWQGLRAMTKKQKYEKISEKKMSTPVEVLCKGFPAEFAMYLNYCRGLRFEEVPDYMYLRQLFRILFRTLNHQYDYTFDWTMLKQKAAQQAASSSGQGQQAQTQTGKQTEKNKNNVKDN
# PIK3CB, sequence (P42338 whole entry): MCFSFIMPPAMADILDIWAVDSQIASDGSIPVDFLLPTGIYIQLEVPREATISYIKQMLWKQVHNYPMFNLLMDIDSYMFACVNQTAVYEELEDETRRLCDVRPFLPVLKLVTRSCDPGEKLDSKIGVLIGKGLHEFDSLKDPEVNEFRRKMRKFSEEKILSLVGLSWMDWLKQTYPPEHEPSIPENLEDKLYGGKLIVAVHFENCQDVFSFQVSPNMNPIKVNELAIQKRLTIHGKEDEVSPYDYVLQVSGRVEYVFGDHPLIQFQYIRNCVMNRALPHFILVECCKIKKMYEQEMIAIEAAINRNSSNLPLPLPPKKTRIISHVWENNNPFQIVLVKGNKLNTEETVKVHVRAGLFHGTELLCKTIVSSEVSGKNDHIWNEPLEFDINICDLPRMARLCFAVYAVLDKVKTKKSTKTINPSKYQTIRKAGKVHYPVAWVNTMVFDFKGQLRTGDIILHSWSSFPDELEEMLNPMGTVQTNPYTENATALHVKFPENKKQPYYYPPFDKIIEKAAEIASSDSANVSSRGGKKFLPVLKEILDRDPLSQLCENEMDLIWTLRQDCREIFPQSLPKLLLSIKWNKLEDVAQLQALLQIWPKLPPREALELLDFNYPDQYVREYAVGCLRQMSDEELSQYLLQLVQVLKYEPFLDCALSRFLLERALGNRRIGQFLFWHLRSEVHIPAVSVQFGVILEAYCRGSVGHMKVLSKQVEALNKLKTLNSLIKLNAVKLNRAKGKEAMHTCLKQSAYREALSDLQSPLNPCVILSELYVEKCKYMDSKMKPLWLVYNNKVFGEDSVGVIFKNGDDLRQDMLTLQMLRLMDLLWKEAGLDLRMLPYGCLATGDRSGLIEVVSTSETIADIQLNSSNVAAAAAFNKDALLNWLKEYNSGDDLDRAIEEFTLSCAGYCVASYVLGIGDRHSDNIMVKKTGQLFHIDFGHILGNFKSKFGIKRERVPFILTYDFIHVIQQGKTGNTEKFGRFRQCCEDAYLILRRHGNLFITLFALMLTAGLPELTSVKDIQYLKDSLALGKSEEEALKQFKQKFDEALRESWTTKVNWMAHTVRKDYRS
# T4 sequence (P42680 whole entry): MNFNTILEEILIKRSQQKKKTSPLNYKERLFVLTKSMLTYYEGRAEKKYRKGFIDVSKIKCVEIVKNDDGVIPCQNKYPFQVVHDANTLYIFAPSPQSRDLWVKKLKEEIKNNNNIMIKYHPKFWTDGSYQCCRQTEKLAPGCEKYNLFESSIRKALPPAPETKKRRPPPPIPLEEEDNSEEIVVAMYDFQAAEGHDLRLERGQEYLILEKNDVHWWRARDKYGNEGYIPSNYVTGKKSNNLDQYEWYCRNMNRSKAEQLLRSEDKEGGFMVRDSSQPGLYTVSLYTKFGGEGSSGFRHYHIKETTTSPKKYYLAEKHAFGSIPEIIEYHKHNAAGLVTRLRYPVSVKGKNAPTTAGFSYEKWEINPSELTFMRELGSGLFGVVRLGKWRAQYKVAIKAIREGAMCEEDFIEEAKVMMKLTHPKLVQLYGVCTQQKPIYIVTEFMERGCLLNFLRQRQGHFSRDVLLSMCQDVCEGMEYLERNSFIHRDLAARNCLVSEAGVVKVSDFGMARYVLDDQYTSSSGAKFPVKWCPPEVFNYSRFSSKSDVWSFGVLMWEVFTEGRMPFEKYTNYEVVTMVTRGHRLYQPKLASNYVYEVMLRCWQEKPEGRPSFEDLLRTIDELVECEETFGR
# CLK2, sequence (P49760 whole entry): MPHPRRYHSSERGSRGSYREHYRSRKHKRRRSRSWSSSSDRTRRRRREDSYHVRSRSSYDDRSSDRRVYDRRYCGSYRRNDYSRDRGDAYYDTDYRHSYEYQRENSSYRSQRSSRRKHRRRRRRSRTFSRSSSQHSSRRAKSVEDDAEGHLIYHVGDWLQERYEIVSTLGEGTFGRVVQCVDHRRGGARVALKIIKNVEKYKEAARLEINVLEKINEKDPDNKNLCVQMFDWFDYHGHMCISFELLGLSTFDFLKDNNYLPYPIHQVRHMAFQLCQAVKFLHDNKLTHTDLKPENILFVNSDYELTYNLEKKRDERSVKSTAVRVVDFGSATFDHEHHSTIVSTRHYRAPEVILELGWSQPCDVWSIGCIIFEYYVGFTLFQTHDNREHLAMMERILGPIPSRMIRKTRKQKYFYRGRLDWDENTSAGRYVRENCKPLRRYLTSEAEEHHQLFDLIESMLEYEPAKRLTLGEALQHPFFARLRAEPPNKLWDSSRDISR
# MAST1, sequence (Q9Y2H9 whole entry): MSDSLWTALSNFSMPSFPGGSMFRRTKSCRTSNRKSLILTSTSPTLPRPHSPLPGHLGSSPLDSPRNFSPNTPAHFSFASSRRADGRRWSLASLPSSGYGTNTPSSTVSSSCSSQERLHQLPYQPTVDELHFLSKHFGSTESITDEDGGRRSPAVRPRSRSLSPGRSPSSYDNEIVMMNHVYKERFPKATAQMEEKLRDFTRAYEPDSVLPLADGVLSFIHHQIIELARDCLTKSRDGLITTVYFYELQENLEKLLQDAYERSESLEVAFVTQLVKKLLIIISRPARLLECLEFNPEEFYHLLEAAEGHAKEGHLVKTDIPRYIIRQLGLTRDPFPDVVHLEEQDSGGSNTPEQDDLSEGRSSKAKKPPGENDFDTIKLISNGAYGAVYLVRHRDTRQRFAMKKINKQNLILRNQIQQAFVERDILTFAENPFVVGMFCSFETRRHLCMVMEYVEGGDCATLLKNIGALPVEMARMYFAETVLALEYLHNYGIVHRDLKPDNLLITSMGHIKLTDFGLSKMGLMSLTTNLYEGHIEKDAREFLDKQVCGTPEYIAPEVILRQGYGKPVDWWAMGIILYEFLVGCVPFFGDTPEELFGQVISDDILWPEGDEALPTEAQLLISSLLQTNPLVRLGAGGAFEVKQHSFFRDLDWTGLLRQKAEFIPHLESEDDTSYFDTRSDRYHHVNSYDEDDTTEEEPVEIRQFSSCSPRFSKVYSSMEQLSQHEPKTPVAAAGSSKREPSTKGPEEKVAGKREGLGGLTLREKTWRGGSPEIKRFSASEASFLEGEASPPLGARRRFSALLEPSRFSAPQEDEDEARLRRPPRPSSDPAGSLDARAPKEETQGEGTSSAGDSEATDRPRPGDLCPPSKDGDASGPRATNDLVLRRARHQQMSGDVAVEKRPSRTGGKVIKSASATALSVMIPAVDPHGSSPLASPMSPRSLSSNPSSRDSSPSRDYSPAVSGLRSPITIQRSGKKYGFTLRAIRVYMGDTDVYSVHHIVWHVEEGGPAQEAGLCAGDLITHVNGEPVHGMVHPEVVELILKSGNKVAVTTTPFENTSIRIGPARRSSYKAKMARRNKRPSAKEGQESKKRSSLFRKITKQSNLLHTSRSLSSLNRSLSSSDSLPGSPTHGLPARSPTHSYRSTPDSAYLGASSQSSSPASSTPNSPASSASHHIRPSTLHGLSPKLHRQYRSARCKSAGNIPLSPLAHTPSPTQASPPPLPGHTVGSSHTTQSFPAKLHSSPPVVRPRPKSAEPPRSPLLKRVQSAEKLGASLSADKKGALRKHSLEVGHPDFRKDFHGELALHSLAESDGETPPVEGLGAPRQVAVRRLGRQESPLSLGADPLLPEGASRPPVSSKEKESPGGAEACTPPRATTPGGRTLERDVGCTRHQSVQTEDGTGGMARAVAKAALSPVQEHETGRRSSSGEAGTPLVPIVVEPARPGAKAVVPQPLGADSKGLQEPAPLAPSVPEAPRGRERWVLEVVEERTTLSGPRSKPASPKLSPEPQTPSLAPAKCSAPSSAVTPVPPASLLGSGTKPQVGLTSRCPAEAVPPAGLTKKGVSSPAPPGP
# NEK6, sequence (Q9HC98 whole entry): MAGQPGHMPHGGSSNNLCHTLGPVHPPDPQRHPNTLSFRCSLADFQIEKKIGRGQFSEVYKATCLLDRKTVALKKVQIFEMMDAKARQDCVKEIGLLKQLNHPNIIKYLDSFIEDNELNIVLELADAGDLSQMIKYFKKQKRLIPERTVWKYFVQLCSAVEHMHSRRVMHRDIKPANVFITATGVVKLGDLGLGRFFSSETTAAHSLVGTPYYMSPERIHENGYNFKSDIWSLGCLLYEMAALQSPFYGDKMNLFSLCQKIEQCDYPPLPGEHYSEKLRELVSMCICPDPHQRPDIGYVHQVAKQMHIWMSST
compound,measurement,setting,value
"C=CC(=O)Nc1ccc(OC)c(Nc2cc(-c3[nH]c(CC)nc3-c3cccc(NC(=O)c4cccc5c4NC(=O)c4ccccc4N5)c3)ccn2)c1 [Compound 4, N-(3-(5-(2-((5-Acrylamido-2-methoxyphenyl)amino)pyridin-4-yl)-2-ethyl-1H-imidazol-4-yl)phenyl)-11-oxo-10,11-dihydro-5H-dibenzo[b,e][1,4]diazepine-9-carboxamide]",remaining binding at 1 µM,CSNK1G3,98%
same,remaining binding at 1 µM,RIPK2,62%
same,remaining binding at 1 µM,RIPK1,100%
same,remaining binding at 1 µM,BRAF,90%
same,remaining binding at 1 µM,STK39,85%
same,remaining binding at 1 µM,TEC,45%
same,remaining binding at 1 µM,PCTK2,100%
same,remaining binding at 1 µM,MST4,94%
same,remaining binding at 1 µM,EGFR(L858R),5%
same,remaining binding at 1 µM,ASK2,100%
same,remaining binding at 1 µM,CLK2,63%
same,remaining binding at 1 µM,MET(M1250T),89%
same,remaining binding at 1 µM,MAP4K2,36%
same,remaining binding at 1 µM,NEK6,100%
same,remaining binding at 1 µM,GRK1,94%
same,remaining binding at 1 µM,MAPKAPK2,100%
same,remaining binding at 1 µM,TGFBR2,75%
same,remaining binding at 1 µM,TRPM6,99%
same,remaining binding at 1 µM,PRKCI,100%
same,remaining binding at 1 µM,RET(V804L),99%
same,remaining binding at 1 µM,CSNK1A1L,91%
same,remaining binding at 1 µM,TNIK,33%
same,remaining binding at 1 µM,PIK3CB,90%
same,remaining binding at 1 µM,ABL2,92%
same,remaining binding at 1 µM,ZAK,87%
same,remaining binding at 1 µM,ACVR1,96%
same,remaining binding at 1 µM,CDK11,100%
same,remaining binding at 1 µM,EPHA8,98%
same,remaining binding at 1 µM,LOK,49%
same,remaining binding at 1 µM,FYN,64%
same,remaining binding at 1 µM,CDKL3,100%
same,remaining binding at 1 µM,CLK4,100%
same,remaining binding at 1 µM,PIP5K2B,100%
same,remaining binding at 1 µM,TRKA,77%
same,remaining binding at 1 µM,PIK3CA(Q546K),100%
same,remaining binding at 1 µM,MAST1,100%
same,remaining binding at 1 µM,LCK,7.7%
same,remaining binding at 1 µM,ASK1,100%
same,remaining binding at 1 µM,CAMK2D,88%
